Where two headings read alike, the source gives them in different places.
How the values were obtained:
[1] = stored at 4° C.
Description: For the determination of the purity and of the ratio of the diastereoisomers a sample of the compound of formula IV was washed with 94% (v/v) aqueous ethanol and was then dried under reduced pressure.

[2] = stored at 25° C. under vacuum [2 mbar]

| HPLC purity (%) ([1]; time 0 months) | HPLC purity (%) ([1]; time 6 months) | HPLC assay (%) ([2]; time 0 months) | HPLC purity (%) ([2]; time 0 months) | HPLC assay (%) ([2]; time 1 month) | HPLC purity (%) ([2]; time 1 month) | HPLC assay (%) ([2]; time 2 months) | HPLC purity (%) ([2]; time 2 months) | HPLC assay (%) ([2]; time 3 months) | HPLC purity (%) ([2]; time 3 months) | HPLC assay (%) ([2]; time 6 months) | HPLC purity (%) ([2]; time 6 months) | HPLC assay (%) ([2]; time 9 months) | HPLC purity (%) ([2]; time 9 months) | SMILES |
| --- | --- | --- | --- | --- | --- | --- | --- | --- | --- | --- | --- | --- | --- | --- |
| 96.45 | 96.66 |  |  |  |  |  |  |  |  |  |  |  |  | CN1c2c(nc(N)[nH]c2=O)NC[C@@H]1CNc1ccc(C(=O)N[C@@H](CCC(=O)O)C(=O)O)cc1 [formula IV, (6S)—N(5)-methyl-5,6,7,8-tetrahydrofolic acid] |
|  |  | 99.0 | 98.7 | 98.8 | 98.7 | 99.8 | 98.9 | 100.2 | 98.8 | 99.9 | 98.5 | 100.7 | 98.9 | CN1c2c(nc(N)[nH]c2=O)NC[C@@H]1CNc1ccc(C(=O)NC(CCC(=O)[O-])C(=O)[O-])cc1.[Ca+2] (stereo partly drawn) [formula V, calcium salt of (6S)—N(5)-methyl-5,6,7,8-tetrahydrofolic acid] |

Reference: US8754212B2, “Process for the preparation of stable, amorphous calcium salt of (6S)-N(5)-methyl-5,6,7,8-tetrahydrofolic acid” (Cerbios-Pharma S.A., priority 2007, dated 2014)
